From PMC12655351, “Synthesis and Anticancer Activity Evaluation of New 5-((5-Nitrofuran-2-yl)allylidene)-2-thioxo-4-thiazolidinones” (Pharmaceuticals, 2025)
“And” between values parts separate entries of the source, which are not always exact repeats. Equal entries are not always repeated. Where two headings read alike, the source gives them in different places.

Assays:
MCF7 = assay: NCI-60 SRB screen; details: MCF7, 48 h
SK-OV-3 = assay: cells; details: Homo sapiens, SK-OV-3, 48 h; for CC50: read-out: LC50, SK-OV-3, 48 h
Melanoma = assay: cells; details: Homo sapiens; for GI50: read-out: MG_MID GI50; for CC50: read-out: MG_MID LC50
M14 = assay: NCI-60 SRB screen; details: M14, 48 h
HCC-2998 [1] = test system: HCC-2998
U251 = assay: NCI-60 SRB screen
Prostate Cancer = assay: cells; details: Homo sapiens, read-out: MG_MID GI50
OVCAR-8 [2] = assay: cells; details: Homo sapiens, OVCAR-8, 48 h
HCT-15 = assay: NCI-60 SRB screen; details: HCT-15, 48 h
HS 578T = assay: cells; details: Homo sapiens, 48 h; for CC50: read-out: LC50
SN12C = assay: cells; details: Homo sapiens, 48 h
CNS cancer = assay: cells; details: Homo sapiens; for GI50: read-out: MG_MID GI50; for CC50: read-out: MG_MID LC50
NCI-H322M = assay: NCI-60 SRB screen; details: 48 h; for CC50: read-out: LC50, NCI-H322M, 48 h
Ovarian cancer [3] = details: Ovarian cancer subpanel
MDA-MB-231/ATCC [4] = details: 48 h
MDA-MB-435 = assay: cells; details: Homo sapiens, MDA-MB-435, 48 h
TK-10 = assay: cells; details: Homo sapiens, TK-10, 48 h; for CC50: read-out: LC50, TK-10, 48 h
[5] = test system: panel of 60 cancer cell lines; assay: cells; details: Homo sapiens, read-out: MG_MID GI50
MOLT-4 = assay: cells; details: Homo sapiens, MOLT-4, 48 h; for CC50: read-out: LC50, MOLT-4, 48 h
EKVX = assay: NCI-60 SRB screen; details: 48 h; for CC50: read-out: LC50, EKVX, 48 h
COLO 205 [6] = assay: cells; details: Homo sapiens, COLO 205, 48 h
HCC-2998 [7] = assay: cells; details: Homo sapiens, HCC 2998, 48 h
NCI-H522 = assay: NCI-60 SRB screen
COLO 205 [8] = details: COLO 205, 48 h
OVCAR-8 [9] = details: OVCAR-8, 48 h
MDA-MB-231/ATCC [10] = assay: cells; details: Homo sapiens, MDA-MB-231, 48 h
UACC-257 = details: for TGI: UACC-257, 48 h
NCI-H23 = assay: cells; details: Homo sapiens, NCI-H23, 48 h; for CC50: read-out: LC50, NCI-H23, 48 h
Ovarian cancer [11] = assay: cells; details: Homo sapiens; for GI50: read-out: MG_MID GI50; for CC50: read-out: MG_MID LC50
[12] = Homo sapiens, U-251, 48 h, U251, 48 h
[13] = Homo sapiens, U-251, 48 h, read-out: LC50, U251, 48 h

**Q.** Which results are given for `O=C(O)C(c1ccccc1)N1C(=O)/C(=C/C=C/c2ccc([N+](=O)[O-])o2)SC1=S` (stereo not drawn) [9b, 2-((Z)-5-((E)-3-(5-Nitrofuran-2-yl)allylidene)-4-oxo-2-thioxothiazolidin-3-yl)-2-phenylacetic acid]?
**A.** GI50 (MCF7; Homo sapiens): 3.67 µM; TGI (MCF7): 16.5 µM; GI50 (SK-OV-3): 15.9 µM; CC50 (SK-OV-3): 56.3 µM; GI50 (Melanoma): 7.49 µM; CC50 (Melanoma): 48.9 µM; GI50 (M14; Homo sapiens): 12.6 µM; CC50 (M14; Homo sapiens, read-out: LC50, M14, 48 h): 58 µM; TGI (M14): 27.0 µM; TGI (BT-549; BT-549, 48 h): 7.81 µM; TGI (HCC-2998 [1]; HCC-2998, 48 h): 29.9 µM; GI50 (U251; [12]): 4.11 µM; CC50 (U251; [13]): 49.8 µM; TGI (U251; U251, 48 h): 16.5 µM; GI50 (Prostate Cancer): 12.5 µM; GI50 (OVCAR-8 [2]): 11.1 µM; CC50 (OVCAR-8 [2]; read-out: LC50, OVCAR-8, 48 h): 58.5 µM; TGI (HCT-15): 22.9 µM; GI50 (HCT-15; Homo sapiens): 7.73 µM; CC50 (HCT-15; Homo sapiens, read-out: LC50, HCT-15, 48 h): 59 µM; GI50 (HS 578T; HS 578T): 4.59 µM; CC50 (HS 578T): > 100 µM; GI50 (SN12C): 5.39 µM; CC50 (SN12C; read-out: LC50, SN12C, 48 h): 45 µM; GI50 (CNS cancer): 9.99 µM; CC50 (CNS cancer): 48.4 µM; TGI (NCI-H322M): 26.6 µM; GI50 (NCI-H322M; Homo sapiens): 13.4 µM; CC50 (NCI-H322M; Homo sapiens): 52.5 µM; MG_MID TGI (Ovarian cancer [3]): 27.9 µM; TGI (MDA-MB-231/ATCC [4]): 24.2 µM; GI50 (MDA-MB-435): 3.04 µM; CC50 (MDA-MB-435; read-out: LC50, MDA-MB-435, 48 h): 40.6 µM; GI50 (TK-10): 16.1 µM; CC50 (TK-10): 55.9 µM; GI50 [5]: 9.03 µM; GI50 (MOLT-4): 12.1 µM; CC50 (MOLT-4): > 100 µM; TGI (EKVX): 28.1 µM; GI50 (EKVX; Homo sapiens): 14.3 µM; CC50 (EKVX; Homo sapiens): 55.1 µM; TGI (OVCAR-4; OVCAR-4, 48 h): 28.0 µM; GI50 (COLO 205 [6]): 6.65 µM; CC50 (COLO 205 [6]; read-out: LC50, COLO 205, 48 h): 60.4 µM; GI50 (HCC-2998 [7]): 15.6 µM; GI50 (NCI-H522; Homo sapiens, NCI-H522, 48 h): 4.09 µM; CC50 (NCI-H522; Homo sapiens, NCI-H522, 48 h, read-out: LC50, NCI-H522, 48 h): 64.6 µM; growth GP (NCI-H522; NCI-H522, 10 μM, 48 h): -88.21%; TGI (NCI-H522; NCI-H522, 48 h): 19.1 µM; TGI (COLO 205 [8]): 22.2 µM; TGI (OVCAR-8 [9]): 25.5 µM; GI50 (MDA-MB-231/ATCC [10]; MDA-MB-231/ATCC, 48 h): 10.8 µM; CC50 (MDA-MB-231/ATCC [10]; read-out: LC50, MDA-MB-231/ATCC, 48 h): 54.2 µM; TGI (UACC-257): 27.2 µM; GI50 (NCI-H23): 14.4 µM; CC50 (NCI-H23): 66.9 µM; GI50 (Ovarian cancer [11]): 13 µM; CC50 (Ovarian cancer [11]): 60.3 µM

**Q.** With `O=C(O)CCCN1C(=O)/C(=C/C=C/c2ccc([N+](=O)[O-])o2)SC1=S` [13b, 4-((Z)-5-((E)-3-(5-Nitrofuran-2-yl)allylidene)-4-oxo-2-thioxothiazolidin-3-yl)butanoic acid] as the compound, how does the GI50 (MCF7; Homo sapiens) read?
**A.** Its GI50 is 0.35 µM.

**Q.** What about the GI50 (MCF7) of the same compound?
**A.** Its GI50 is 0.2 µM.

**Q.** What about the TGI (MCF7) of the same compound?
**A.** The TGI was 1.97 µM and 1.58 µM.

**Q.** And the GI50 (SK-OV-3)?
**A.** Its GI50 is 2.73 µM.

**Q.** What about the CC50 (SK-OV-3) of the same compound?
**A.** The CC50 was 28.1 µM.

**Q.** What about the GI50 (Melanoma) of the same compound?
**A.** Its GI50 is 0.59 µM.

**Q.** What about the CC50 (Melanoma) of the same compound?
**A.** The CC50 was 3.6 µM.

**Q.** And the “growth GP” value (BT-549; BT-549, 10 μM, 48 h)?
**A.** Its value is -98.54%.

**Q.** What about the “growth GP” value (HCC-2998 [1]; HCC-2998, 10 μM, 48 h) of the same compound?
**A.** The value was -95.27%.

**Q.** What about the GI50 (U251; [12]) of the same compound?
**A.** Its GI50 is 0.37 µM.

**Q.** What about the CC50 (U251; [13]) of the same compound?
**A.** The CC50 was 4.23 µM.

**Q.** And the GI50 (U251; U251, 48 h)?
**A.** The GI50 was 0.19 µM.

**Q.** And the CC50 (U251; read-out: LC50, U251, 48 h)?
**A.** Its CC50 is 3.16 µM.

**Q.** What about the GI50 (Prostate Cancer) of the same compound?
**A.** Its GI50 is 0.82 µM.

**Q.** And the GI50 (OVCAR-8 [2])?
**A.** The GI50 was 0.46 µM.

**Q.** And the GI50 (HCT-15)?
**A.** The GI50 was 0.11 µM.

**Q.** And the TGI (HCT-15)?
**A.** Its TGI is 0.52 µM and 0.33 µM.

**Q.** What about the GI50 (HCT-15; Homo sapiens) of the same compound?
**A.** The GI50 was 0.18 µM.

**Q.** What about the CC50 (HS 578T) of the same compound?
**A.** The CC50 was greater than 100 µM.

**Q.** What about the GI50 (SN12C) of the same compound?
**A.** The GI50 was 0.34 µM.

**Q.** And the GI50 (CNS cancer)?
**A.** Its GI50 is 0.8 µM.

**Q.** What about the CC50 (CNS cancer) of the same compound?
**A.** The CC50 was 6.68 µM.

**Q.** What about the GI50 (NCI-H322M) of the same compound?
**A.** The GI50 was 1.97 µM.

**Q.** What about the TGI (NCI-H322M) of the same compound?
**A.** The TGI was 8.09 µM and 5.50 µM.

**Q.** And the GI50 (NCI-H322M; Homo sapiens)?
**A.** The GI50 was 2.52 µM.

**Q.** And the CC50 (NCI-H322M; Homo sapiens)?
**A.** Its CC50 is 28.3 µM.

**Q.** What about the “MG_MID TGI” value (Ovarian cancer [3]) of the same compound?
**A.** Its value is 2.99 µM.

**Q.** What about the “growth GP” value (MDA-MB-231/ATCC [4]; 10 μM) of the same compound?
**A.** The value was -95.61%.

**Q.** And the CC50 (TK-10)?
**A.** The CC50 was 5.84 µM.

**Q.** What about the GI50 [5] of the same compound?
**A.** Its GI50 is 1.61 µM.

**Q.** And the GI50 (MOLT-4)?
**A.** The GI50 was 0.41 µM.

**Q.** And the CC50 (MOLT-4)?
**A.** The CC50 was 8.99 µM.

**Q.** What about the GI50 (EKVX) of the same compound?
**A.** The GI50 was 1.05 µM.

**Q.** And the TGI (EKVX)?
**A.** The TGI was 4.24 µM and 2.52 µM.

**Q.** And the GI50 (EKVX; Homo sapiens)?
**A.** Its GI50 is 1.83 µM.

**Q.** And the CC50 (EKVX; Homo sapiens)?
**A.** Its CC50 is 9.84 µM.

**Q.** What about the “growth GP” value (OVCAR-4; OVCAR-4, 10 μM, 48 h) of the same compound?
**A.** Its value is -97.74%.

**Q.** And the GI50 (OVCAR-4; OVCAR-4, 48 h)?
**A.** Its GI50 is 1.56 µM.

**Q.** And the TGI (OVCAR-4; OVCAR-4, 48 h)?
**A.** The TGI was 2.58 µM and 2.94 µM.

**Q.** And the CC50 (OVCAR-4; human, 48 h)?
**A.** Its CC50 is 5.54 µM.

**Q.** And the GI50 (OVCAR-8 [9])?
**A.** Its GI50 is 0.27 µM.

**Q.** And the TGI (OVCAR-8 [9])?
**A.** The TGI was 2.25 µM and 1.24 µM.

**Q.** What about the TGI (UACC-257) of the same compound?
**A.** The TGI was 3.15 µM and 1.73 µM.

**Q.** What about the CC50 (UACC-257; human, 48 h) of the same compound?
**A.** The CC50 was 4.66 µM.

**Q.** What about the CC50 (NCI-H23) of the same compound?
**A.** Its CC50 is 6.24 µM.

**Q.** What about the GI50 (Ovarian cancer [11]) of the same compound?
**A.** The GI50 was 0.96 µM.

**Q.** And the CC50 (Ovarian cancer [11])?
**A.** The CC50 was 13.2 µM.
